# Article PMC3263372 (Chembiochem, 2011)
# “Also recorded” adds a separate entry of the source. Square brackets hold non-standard residues; d marks the D form. Peptide text beside a SMILES is read from it. β3hW = N[C@H](CC(=O)O)Cc1c[nH]c2ccccc12; β3hR = N=C(N)NCCC[C@H](N)CC(=O)O; β3hE = N[C@@H](CCC(=O)O)CC(=O)O; β3hQ = NC(=O)CC[C@H](N)CC(=O)O; β3hD = NC(CC(=O)O)CC(=O)O; β3hA = C[C@H](N)CC(=O)O
# How the values were obtained:
# Bcl-w = biological target: T1, Bcl-w (Homo sapiens, UniProt Q92843, A128E/C29S); assay: Solution competition SPR; type: binding
# T1 sequence (Q92843 1-164 C29S/A128E limits assumed): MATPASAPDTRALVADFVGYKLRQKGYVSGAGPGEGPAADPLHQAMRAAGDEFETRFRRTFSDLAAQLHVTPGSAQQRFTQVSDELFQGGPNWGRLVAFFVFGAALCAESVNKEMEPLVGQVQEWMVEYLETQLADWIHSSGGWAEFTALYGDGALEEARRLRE
# Bcl-2 = Bcl-2 (Homo sapiens, UniProt P10415); assay: Solution competition SPR; type: binding
# Bcl-xL [1] = biological target: T2, Bcl-xL (Homo sapiens, UniProt Q07817); assay: Solution competition SPR; type: binding; conditions: for affinity for Bcl-xL: SPR, in words
# pro-survival proteins = conditions: ref [37]; cited from earlier work
# Mcl-1 = Mcl-1 (Homo sapiens, UniProt Q07820, A193S/E173D/K208R/M199L/R201E/S202A/S206G/T196S/T205A); assay: Solution competition SPR; type: binding, human/mouse chimeric; conditions: for affinity for Mcl-1: SPR, in words
# [2] = ref [14]; cited from earlier work
# Bcl-xL [3] = biological target: T2, Bcl-xL; conditions: preliminary studies; ref [14]; cited from earlier work
# T2 sequence (Q07817 1-209 limits assumed): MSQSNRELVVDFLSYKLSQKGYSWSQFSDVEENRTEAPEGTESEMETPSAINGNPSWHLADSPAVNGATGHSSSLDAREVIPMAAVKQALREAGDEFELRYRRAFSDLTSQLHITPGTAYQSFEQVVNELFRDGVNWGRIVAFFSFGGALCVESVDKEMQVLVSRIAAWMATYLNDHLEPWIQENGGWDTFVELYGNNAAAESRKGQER
# Sequence of Mcl-1 (Q07820 171-327 E173D/A193S/T196S/M199L/R201E/S202A/T205A/S206G/K208R limits assumed): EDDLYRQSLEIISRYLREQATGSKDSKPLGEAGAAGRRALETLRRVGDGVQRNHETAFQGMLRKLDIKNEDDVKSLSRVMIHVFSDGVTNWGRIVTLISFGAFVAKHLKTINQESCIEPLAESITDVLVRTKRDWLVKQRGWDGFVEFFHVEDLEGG
# Sequence of Bcl-2 (P10415 1-217 limits assumed, species assumed): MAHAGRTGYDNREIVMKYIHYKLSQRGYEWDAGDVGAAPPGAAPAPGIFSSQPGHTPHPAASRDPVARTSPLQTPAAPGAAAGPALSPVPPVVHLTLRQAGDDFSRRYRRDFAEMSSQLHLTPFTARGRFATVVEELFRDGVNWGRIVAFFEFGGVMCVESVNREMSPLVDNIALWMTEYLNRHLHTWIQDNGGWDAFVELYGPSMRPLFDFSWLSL
Structure (SMILES),IC50 (Bcl-w) [µM],IC50 (Bcl-2) [µM],IC50 (Bcl-xL [1]) [µM],binding to all pro-survival proteins (pro-survival proteins),IC50 (Mcl-1) [µM],resistance to proteolytic degradation [2],affinity for Bcl-xL (Bcl-xL [1]),binding to Bcl-xL (Bcl-xL [3]),affinity for Mcl-1 (Mcl-1)
CC[C@H](C)[C@H](NC(=O)[C@H](CCC(=O)O)NC(=O)[C@H](CCCNC(=N)N)NC(=O)[C@H](C)NC(=O)[C@H](Cc1c[nH]c2ccccc12)NC(=O)[C@H](CCC(N)=O)NC(=O)[C@H](CCC(=O)O)NC(=O)[C@H](CCC(=O)O)NC(C)=O)C(=O)NCC(=O)N[C@@H](C)C(=O)N[C@@H](CCC(N)=O)C(=O)N[C@@H](CC(C)C)C(=O)N[C@@H](CCCNC(=N)N)C(=O)N[C@@H](CCCNC(=N)N)C(=O)N[C@@H](CCSC)C(=O)N[C@@H](C)C(=O)N[C@@H](CC(=O)O)C(=O)N[C@@H](CC(=O)O)C(=O)N[C@@H](CC(C)C)C(=O)N[C@@H](CC(N)=O)C(=O)N[C@@H](C)C(=O)N[C@@H](CCC(N)=O)C(=O)N[C@@H](Cc1ccc(O)cc1)C(=O)N[C@@H](CCC(=O)O)C(=O)N[C@@H](CCCNC(=N)N)C(=O)N[C@@H](CCCNC(=N)N)C(N)=O [α-peptide 1],0.013,0.005,0.018,promiscuous binder capable of engaging all pro-survival proteins with high affinity,0.01,,,,
CC[C@H](C)[C@H](NC(=O)C[C@H](CCC(=O)O)NC(=O)[C@H](CCCNC(=N)N)NC(=O)[C@H](C)NC(=O)C[C@H](Cc1c[nH]c2ccccc12)NC(=O)[C@H](CCC(N)=O)NC(=O)[C@H](CCC(=O)O)NC(=O)[C@H](CCC(=O)O)NC(C)=O)C(=O)NCC(=O)N[C@@H](C)C(=O)N[C@@H](CCC(N)=O)CC(=O)N[C@@H](CC(C)C)C(=O)N[C@@H](CCCNC(=N)N)C(=O)N[C@@H](CCCNC(=N)N)CC(=O)N[C@@H](CCSC)C(=O)N[C@@H](C)C(=O)N[C@@H](CC(=O)O)C(=O)N[C@@H](CC(=O)O)CC(=O)N[C@@H](CC(C)C)C(=O)N[C@@H](CC(N)=O)C(=O)N[C@@H](C)CC(=O)N[C@@H](CCC(N)=O)C(=O)N[C@@H](Cc1ccc(O)cc1)C(=O)N[C@@H](CCC(=O)O)C(=O)N[C@@H](CCCNC(=N)N)CC(=O)N[C@@H](CCCNC(=N)N)C(N)=O [α/β-peptide 2],,,,,,significant resistance to proteolytic degradation,strong binding; also recorded: high affinity,bound tightly,does not bind tightly to Mcl-1; also recorded: low affinity; also recorded: relatively weak binding
CC[C@H](C)[C@H](NC(=O)C[C@H](CCC(=O)O)NC(=O)[C@H](CCCNC(=N)N)NC(=O)[C@H](C)NC(=O)C[C@H](Cc1c[nH]c2ccccc12)NC(C)=O)C(=O)NCC(=O)N[C@@H](C)C(=O)N[C@@H](CCC(N)=O)CC(=O)N[C@@H](CC(C)C)C(=O)N[C@@H](CCCNC(=N)N)C(=O)N[C@@H](CCCNC(=N)N)CC(=O)N[C@@H](CCSC)C(=O)N[C@@H](C)C(=O)N[C@@H](CC(=O)O)C(=O)N[C@@H](CC(=O)O)CC(=O)N[C@@H](CC(C)C)C(=O)N[C@@H](CC(N)=O)C(=O)N[C@@H](C)CC(=O)N[C@@H](CCC(N)=O)C(=O)N[C@@H](Cc1ccc(O)cc1)C(=O)N[C@@H](CCC(=O)O)C(N)=O [α/β-peptide 3] (Ac-[β3hW]AR[β3hE]IGA[β3hQ]LR[β3hR]MAD[β3hD]LN[β3hA]QYE-NH2; N-terminus assumed),,,,,,,high affinity,,low affinity
